This is an account of results in patent publication US20100273732A1, “COMBINATION METHODS OF TREATING CANCER” (priority 2003, published 2010).

SMILES strings stand for the structures. Like-named read-outs stand apart in the source and are kept apart here.

The test system of one assay is LnCap cell line. Put plainly: Cell proliferation and viability count, SAHA and gemcitabine, LnCap. It counts as cell-based, human. As to conditions: 2 nM gemcitabine, 5 μM SAHA or both, 72 hours. The protocol:
Cells were plated at a density of 2.5×10^4 cells/ml in RMPI medium with 10% FCS, and were allowed to adhere to wells.
Gemcitabine was reconstituted in medium and the pH was adjusted to 7 using 1N NaOH. Concentrations of gemcitabine were prepared by serial dilution of gemcitabine in complete medium.
The cells were then cultured with medium containing the compound or combination of compounds.
(§1) To assay for proliferation and viability, triplicate samples of cells were harvested and counted for proliferation and viability at the indicated time points as described above in Example 2.

Assay [1] relates to T24 (bladder carcinoma) cells. Put plainly: alamarBlue proliferation inhibition, drug combination experiments, T24. It counts as cell-based. As to conditions: Homo sapiens, 96 h, read-out: 50% inhibition Effective Dose, T24, 4 days. The protocol:
(§2) Drug combination experiments were performed on five human cancer cell lines: T24 (bladder carcinoma), LnCap (prostate), MCF7 (breast), DLCL (non-Hodgkin's lymphoma) and LCC18 (colon carcinoid). Each cell line was cultured and incubated at 37° C. in its required medium: MEM a (10% FCS), RPMI 1640 (10% FCS), DME HG (10% FCS), enhanced RPMI (10% FCS), and Hites medium (5% FCS), respectively.
(§3) DLCL, a suspension cell line, was plated on 96 well plates on the same day of the experiment. For T24, LnCap, DLCL and LCC18, 200 μL containing 2000 cells were plated into each well. For MCF7, 4000 cells/well were plated to account for the line's slower cell cycle.
(§4) Cells that received no treatment served as a control group.
(§5) To administer treatment to adherent cell lines (T24, LnCap, MCF7), media in each well was aspirated and replaced with 200 μL of media containing desired concentration of drug or drugs. For all other cell lines ([…] and DLCL), 22 μL of media containing 10 times the desired concentration of drug or drugs was added to 200 μL of media in each well.
(§6) After treatment, cells were incubated at 37° C. for 4 days. On the fourth day, each well was treated with 20 μL of alamarBlur™, an aqueous dye, and incubated for 4 hours at 37° C. The reduction of this dye, when absorbed by cells, is greater in proliferating cells than in non-proliferating cells because of an increased concentration of NADPH, FADH, FMNH and NADH. The reduction was measured by fluorescence using a SpectaMax GeminiXS® spectrofluorometric microtiter well plate reader (Molecular Devices Corporation, Sunnyvale, Calif.). Data was expressed as fluorescence emission intensity units as a function of time of incubation and analyzed using SOFTmax PRO® v. 4.0 software (Molecular Devices Corp. Sunnyvale, Calif.). In order to assess the percent inhibition of cell growth four days after drug treatment, the following formula was used:
(§7) 100−(Mean Intensity Units/Well with Identical Treatment)*100(Mean Intensity Units/Well in Control Group)
(§8) The concentrations used for treatment with each drug are based on the dose that inhibits 50% of proliferation for each drug. The following concentrations were tested:
(§9) a) 50% effective dose/4; b) 50% effective dose/2; c) 50% effective dose; d) 50% effective dose*2; and e) 50% effective dose*4. […] A polynomial relationship was defined between drug concentration and percent inhibition using various concentrations, and this function was used to predict the concentration of each drug required to inhibit proliferation of 50% of the cells.
(§10) The following criteria were established for assessing additive, synergistic and antagonistic interactions: […]
In general terms: Resazurin is reduced to fluorescent resorufin, in cell work by metabolically active cells.

A further assay concerns LnCap (prostate) cells. Description: alamarBlue proliferation inhibition, drug combination experiments, LnCap. The assay is classed as cell-based. As to conditions: Homo sapiens, 96 h. The protocol: as §2, §3, §4, §5, §6, §7, §8, §9, §10
For a further assay, the system named is T24 cell line. Description: Cell proliferation and viability count, SAHA and 5-azacytidine, T24. The following applies: 200 nM 5-azacytidine (27.5 h pre-incubation), 5 μM SAHA or both. The assay is classed as cell-based, human. The protocol: Cells were cultured in T-150 flasks at 37° C. in RPMI with 10% FCS. Cells were diluted in a complete medium to a density of 5.0×10^4 cells/ml. The cells were incubated at 37° C. for 14 hours before treatment with 5-azacytidine to allow cells to adhere to the wells.
Concentrations of 5-azacytidine were prepared by serial dilution of from a 1 mM stock. After 14-hour incubation in complete medium, wells were aspirated and the medium was replaced to 1 ml of 5-azacytidine at the indicated concentration.
as §1

Assay [2] relates to carcinogen-induced (N-methylnitrosourea) mammary tumors. The following applies: rats; SAHA in diet over 130 days; cited from earlier work.
[3] abbreviates: in combination with SAHA 0.625 μM.
[4] abbreviates: in combination with SAHA 1.25 μM.
[5] abbreviates: in combination with SAHA 2.5 μM.
Setting [6] is: in combination with SAHA 5.0 μM.
[7] abbreviates: in combination with SAHA 10.0 μM.
The mark [8] stands for this setting: read-out: 50% inhibition Effective Dose, LnCap, agent alone, 4 days.
The mark [9] stands for this setting: read-out: 50% inhibition Effective Dose, LnCap, in combination with SAHA 0.125 μM, 4 days.
The mark [10] stands for this setting: read-out: 50% inhibition Effective Dose, LnCap, in combination with SAHA 0.25 μM, 4 days.
[11] abbreviates: read-out: 50% inhibition Effective Dose, LnCap, in combination with SAHA 0.5 μM, 4 days.
[12] abbreviates: read-out: 50% inhibition Effective Dose, LnCap, in combination with SAHA 1.0 μM, 4 days.
[13] abbreviates: read-out: 50% inhibition Effective Dose, LnCap, in combination with SAHA 2.0 μM, 4 days.

`Nc1ccn([C@@H]2O[C@H](CO)[C@@H](O)C2(F)F)c(=O)n1` [gemcitabine]: the “Effect on cell proliferation (FIG. 2)” value in the assay on LnCap cell line is on record as “small effect”.
Turning to `CCc1c2c(nc3ccc(OC(=O)N4CCC(N5CCCCC5)CC4)cc13)-c1cc3c(c(=O)n1C2)COC(=O)[C@]3(O)CC` [Irinotecan], the IC50 in assay [1] (agent alone) amounted to 5.1 nM; in assay [1] (setting [3]), 4.1 nM; in assay [1] (setting [4]), 2.8 nM; in assay [1] (setting [5]), 1.9 nM; in assay [1] (setting [6]), 1.4 nM; in assay [1] (setting [7]), 0.28 nM. Also, the IC50 in the assay with LnCap (prostate) cells (setting [8]) was 5.1 nM; in the assay with LnCap (prostate) cells (setting [9]), 5.1 nM; in the assay on LnCap (prostate) cells (setting [10]), 4.1 nM; in the assay on LnCap (prostate) cells (setting [11]), 3.8 nM; with LnCap (prostate) cells (setting [12]), 1.9 nM; with LnCap (prostate) cells (setting [13]), 1.9 nM.
For the compound `CC(=O)O[C@@]12CO[C@@H]1C[C@H](O)[C@@]1(C)C(=O)[C@H](O)C3=C(C)[C@@H](OC(=O)[C@H](O)[C@@H](NC(=O)OC(C)(C)C)c4ccccc4)C[C@@](O)([C@@H](OC(=O)c4ccccc4)[C@H]21)C3(C)C` [Docetaxel], the IC50 in assay [1] (agent alone) is 2.1 nM; in assay [1] (setting [3]), 0.51 nM; in assay [1] (setting [4]), 0.72 nM; in assay [1] (setting [5]), 0.59 nM; in assay [1] (setting [6]), 0.29 nM; in assay [1] (setting [7]), 0.05 nM. Further, the IC50 is 2.1 nM in the assay with LnCap (prostate) cells (setting [8]); 1.2 nM with LnCap (prostate) cells (setting [9]); 1.2 nM in the assay on LnCap (prostate) cells (setting [10]); 0.6 nM in the assay on LnCap (prostate) cells (setting [11]); 0.34 nM in the assay on LnCap (prostate) cells (setting [12]); 0.12 nM in the assay on LnCap (prostate) cells (setting [13]).
As to `Nc1ncn([C@@H]2O[C@H](CO)[C@@H](O)[C@H]2O)c(=O)n1` [5-azacytidine], the “Effect on cell proliferation (FIG. 3)” value with T24 cell line was “significantly inhibited proliferation”.
As for `O=C(CCCCCCC(=O)Nc1ccccc1)NO` [SAHA, suberoylanilide hydroxamic acid], the “Development and continued growth of mammary tumors” value in assay [2] was “effective at inhibiting the development and continued growth”. In the assay with T24 cell line, the “Effect on cell proliferation (FIG. 3)” value is listed as “significantly inhibited proliferation”. For the same compound, the “Effect on cell proliferation (FIG. 2)” value with LnCap cell line is “significantly inhibited proliferation”.
With `O=c1[nH]cc(F)c(=O)[nH]1` [5-FU, 5-Fluorouracil], the IC50 in assay [1] (agent alone) is 14000 nM; in assay [1] (setting [3]), 13100 nM; in assay [1] (setting [4]), 11500 nM; in assay [1] (setting [6]) it was 2700 nM; in assay [1] (setting [7]) it was 1500 nM; in the assay on LnCap (prostate) cells (setting [8]) it was 3000 nM. Also, the IC50 with LnCap (prostate) cells (setting [9]) was determined as 5200 nM; with LnCap (prostate) cells (setting [11]), 1600 nM; in the assay on LnCap (prostate) cells (setting [12]), 1900 nM; with LnCap (prostate) cells (setting [13]) it was 990 nM.
